The target of the assay is Metallo-beta-lactamase type 2 (Klebsiella pneumoniae, UniProt C7C422). In words: Inhibition of NDM1 (unknown origin).

One may read the IC50 as the midpoint of a concentration-inhibition curve.

The structures appear in SMILES notation.

Chain of Metallo-beta-lactamase type 2 (C7C422 whole entry): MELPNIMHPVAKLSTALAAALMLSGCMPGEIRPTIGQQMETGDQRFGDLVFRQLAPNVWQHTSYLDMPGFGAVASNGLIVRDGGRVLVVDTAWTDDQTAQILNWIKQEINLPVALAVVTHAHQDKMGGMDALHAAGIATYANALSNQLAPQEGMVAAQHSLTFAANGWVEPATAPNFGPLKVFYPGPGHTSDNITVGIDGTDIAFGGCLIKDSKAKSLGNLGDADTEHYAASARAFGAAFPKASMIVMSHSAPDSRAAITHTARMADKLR

`O=C(O)c1ccccn1` registered an IC50 of 17.1 µM.

The record behind these values is BindingDB's records for PubMed 40136287 (CSIR-Institute of Microbial Technology).
